molecular target: T1, PDE4B2 (Homo sapiens, UniProt Q07343); assay: Inhibition of PDE4B2 activity in a modified SPA (scintillation proximity assay) test; format: biochemical; settings: recombinant PDE4B2 (SF21 cell supernatant), [3H]cAMP SPA, 0.5 μM cAMP, 37° C.; value given as a range for the group of listed compounds; read-out: Inhibition of the PDE4 activity, −log IC50 (converted)
T1 construct: made in house; host or cells: SF21 insect cells (baculovirus; virus prepared in SF9 cells)
Protocol: The PDE4B2 (GB no. M97515) was a gift of Prof. M. Conti (Stanford University, USA). It was amplified from the original plasmid (pCMV5) via PCR with primers Rb9 (5′-[…]-3′) and Rb10 (5′-[…]-3′) and cloned into the pCR-Bac vector (Invitrogen, Groningen, NL).
The recombinant baculovirus was prepared by means of homologous recombination in SF9 insect cells. The expression plasmid was cotransfected with Bac-N-Blue (Invitrogen, Groningen, NL) or Baculo-Gold DNA (Pharmingen, Hamburg) using a standard protocol (Pharmingen, Hamburg). Wt virus-free recombinant virus supernatant was selected using plaque assay methods. After that, high-titre virus supernatant was prepared by amplifying 3 times. PDE was expressed in SF21 cells by infecting 2×10^6 cells/ml with an MOI (multiplicity of infection) between 1 and 10 in serum-free SF900 medium (Life Technologies, Paisley, UK). The cells were cultured at 28° C. for 48-72 hours, after which they were pelleted for 5-10 min at 1000 g and 4° C.
The SF21 insect cells were resuspended, at a concentration of approx. 10^7 cells/ml, in ice-cold (4° C.) homogenization buffer (20 mM Tris, pH 8.2, containing the following additions: 140 mM NaCl, 3.8 mM KCl, 1 mM EGTA, 1 mM MgCl2, 10 mM P-mercaptoethanol, 2 mM benzamidine, 0.4 mM Pefablock, 10 μM leupeptin, 10 μM pepstatin A, 5 μM trypsin inhibitor) and disrupted by ultrasonication. The homogenate was then centrifuged for 10 min at 1000×g and the supernatant was stored at −80° C. until subsequent use (see below). The protein content was determined by the Bradford method (BioRad, Munich) using BSA as the standard.
PDE4B2 activity is inhibited by the said compounds in a modified SPA (scintillation proximity assay) test, supplied by Amersham Biosciences (see procedural instructions “phosphodiesterase [3H]cAMP SPA enzyme assay, code TRKQ 7090”), carried out in 96-well microtitre plates (MTP's). The test volume is 100 μl and contains 20 mM Tris buffer (pH 7.4), 0.1 mg of BSA (bovine serum albumin)/ml, 5 mM Mg^2+, 0.5 μM cAMP (including about 50,000 cpm of [3H]cAMP), 1 μl of the respective substance dilution in DMSO and sufficient recombinant PDE (1000×g supernatant, see above) to ensure that 10-20% of the CAMP is converted under the said experimental conditions. […] After a preincubation of 5 min at 37° C., the reaction is started by adding the substrate (cAMP) and the assay is incubated for a further 15 min; after that, it is stopped by adding SPA beads (50 μl). In accordance with the manufacturer's instructions, the SPA beads had previously been resuspended in water, but were then diluted 1:3 (v/v) in water; the diluted solution also contains 3 mM IBMX to ensure a complete PDE activity stop. After the beads have been sedimented (>30 min), the MTP's are analyzed in commercially available luminescence detection devices. The corresponding IC50 values of the compounds for the inhibition of PDE activity are determined from the concentration-effect curves by means of non-linear regression.

T1 sequence (Q07343 1-564 isoform Q07343-2): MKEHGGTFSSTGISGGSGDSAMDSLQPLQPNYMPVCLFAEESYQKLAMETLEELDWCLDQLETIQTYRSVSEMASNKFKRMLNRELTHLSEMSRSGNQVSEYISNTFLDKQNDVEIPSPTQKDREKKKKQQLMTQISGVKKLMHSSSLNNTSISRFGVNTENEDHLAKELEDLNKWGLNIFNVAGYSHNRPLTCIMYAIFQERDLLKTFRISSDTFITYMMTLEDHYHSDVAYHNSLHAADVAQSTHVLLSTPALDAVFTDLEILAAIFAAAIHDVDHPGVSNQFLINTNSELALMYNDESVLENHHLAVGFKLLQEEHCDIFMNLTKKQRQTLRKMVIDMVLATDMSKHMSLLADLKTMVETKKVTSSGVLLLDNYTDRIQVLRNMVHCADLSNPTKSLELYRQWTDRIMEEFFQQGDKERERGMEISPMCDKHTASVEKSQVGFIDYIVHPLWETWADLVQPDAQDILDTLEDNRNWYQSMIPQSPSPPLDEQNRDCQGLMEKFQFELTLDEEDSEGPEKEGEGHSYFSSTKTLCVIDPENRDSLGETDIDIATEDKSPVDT

Row | SMILES | IC50 [nM]
1 | CCOc1cc2c(cc1OC)C(c1ccc(-c3nc(OC)cc(OC)n3)cc1)=N[C@@H]1CC[C@@H](O)C[C@H]21 (racemic) [Compound 3, (2RS,4aRS,10bRS)-6-[4-(4,6-Dimethoxy-pyrimidin-2-yl)-phenyl]-9-ethoxy-8-methoxy-1,2,3,4,4a,10b-hexahydro-phenanthridin-2-ol] | 0.724 to 7.41
2 | CCOc1cc2c(cc1OC)C(c1ccc(-c3csnn3)cc1)=N[C@@H]1CC[C@@H](O)C[C@H]21 (racemic) [Compound 4, (2RS,4aRS,10bRS)-9-Ethoxy-8-methoxy-6-(4-[1,2,3]thiadiazol-4-yl-phenyl)-1,2,3,4,4a,10b-hexahydro-phenanthridin-2ol] | 0.724 to 7.41
3 | CCOc1cc2c(cc1OC)C(c1ccc(N3CCN(C)CC3)cc1)=N[C@@H]1CC[C@@H](O)C[C@H]21 (racemic) [Compound 2, (2RS,4aRS,10bRS)-9-Ethoxy-8-methoxy-6-[4-(4-methyl-piperazin-1-yl)-phenyl]-1,2,3,4,4a,10b-hexahydro-phenanthridin-2-ol] | 0.724 to 7.41
4 | CCn1nnc(-c2ccc(C3=N[C@@H]4CC[C@@H](O)C[C@@H]4c4cc(OC(F)F)c(OC)cc43)cc2)n1 (racemic) [Compound 8, (2RS,4aRS,10bRS)-9-(1,1-Difluoro-methoxy)-6-[4-(2-ethyl-2H-tetrazol-5-yl)-phenyl]-8-methoxy-1,2,3,4,4a,10b-hexahydro-phenanthridin-2ol] | 0.724 to 7.41
5 | CCOc1cc2c(cc1OC)C(c1ccc(N3CCOCC3)cc1)=N[C@@H]1CC[C@@H](O)C[C@H]21 (racemic) [Compound 5, (2RS,4aRS,10bRS)-9-Ethoxy-8-methoxy-6-(4-morpholin-4-yl-phenyl)-1,2,3,4,4a,10b-hexahydro-phenanthridin-2-ol] | 0.724 to 7.41
6 | CCn1nnc(-c2ccc(C3=N[C@@H]4CC[C@@H](O)C[C@@H]4c4cc(OC)c(OC(F)F)cc43)cc2)n1 (racemic) [Compound 7, (2RS,4aRS,10bRS)-8-(1,1-Difluoro-methoxy)-6-[4-(2ethyl-2H-tetrazol-5-yl)-phenyl]-9-methoxy-1,2,3,4,4a,10b-hexahydro-phenanthridin-2-ol] | 0.724 to 7.41
7 | CCOc1cc2c(cc1OC)C(c1ccc(-n3ccnc3)cc1)=N[C@@H]1CC[C@@H](O)C[C@H]21 (racemic) [Compound 1, (2RS,4aRS,10bRS)-9-Ethoxy-6-(4-imidazol-1 yl-phenyl)-8-methoxy-1,2,3,4,4a,10b-hexahydro-phenanthridin-2-ol] | 0.724 to 7.41
8 | CCCn1nnc(-c2ccc(C3=N[C@@H]4CC[C@@H](O)C[C@@H]4c4cc(OC)c(OC)cc43)cc2)n1 (racemic) [Compound 6, (2RS,4aRS,10bRS)-8,9-Dimethoxy-6-[4-(2-propyl-2H-tetrazol-5-yl)-phenyl]-1,2,3,4,4a,10b-hexahydro-phenanthridin-2-ol] | 0.724 to 7.41
